The values that follow are results of earlier work, collected in patent US20080311196A1, “All Day Rhinitic Condition Treatment Regimen” (priority 2006, published 2008).

The target in one series is histamine H1-receptor (Homo sapiens, UniProt P35367). The note with it: E-isomer versus Z-isomer; fit in the histamine H1-receptor binding site.
Sequence of histamine H1-receptor (P35367 whole entry, species assumed): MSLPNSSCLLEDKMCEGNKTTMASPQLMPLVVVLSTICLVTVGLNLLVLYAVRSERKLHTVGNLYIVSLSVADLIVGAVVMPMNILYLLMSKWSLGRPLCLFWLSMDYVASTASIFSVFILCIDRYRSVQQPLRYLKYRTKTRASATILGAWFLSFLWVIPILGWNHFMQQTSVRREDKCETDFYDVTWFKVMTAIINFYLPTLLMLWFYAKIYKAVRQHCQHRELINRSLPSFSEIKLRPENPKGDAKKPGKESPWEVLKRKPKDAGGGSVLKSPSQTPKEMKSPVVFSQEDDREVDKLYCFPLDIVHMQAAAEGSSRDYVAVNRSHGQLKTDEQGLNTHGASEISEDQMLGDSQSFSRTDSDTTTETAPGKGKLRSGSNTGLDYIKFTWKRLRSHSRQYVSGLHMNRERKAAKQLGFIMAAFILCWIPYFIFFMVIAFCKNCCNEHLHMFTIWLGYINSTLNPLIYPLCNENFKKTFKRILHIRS

For the molecule E-triprolidine, the “potency relative to Z-triprolidine” value at histamine H1-receptor is given as “E-triprolidine, for example, is 1000-fold”.
Consider `CN(C)CCC(c1ccc(Cl)cc1)c1ccccn1` (stereo not shown) [chlorpheniramine], for which, under “after dosing”, the “time of maximal pharmacological sedation after dosing” value was 3 to 4 hour. Also, the “persistence of sedation following dosing” value (following dosing, usually not longer than) is 6 to 8 h. Moreover, the “duration of inhibition of the symptoms of rhinitis” value (single dose) is “more than 24 hours”.
